The values below come from paper PMC12813973, “Consequences of Peptide Macrocyclization Revealed by Virus-Inspired β‑Hairpin Mimetics” (ACS Chemical Biology, 2025).

This test has as its target T1, STAT3 (Homo sapiens, UniProt P40763).
T1 construct: STAT3: the gene encoding full-length STAT3 was codon optimised for expression in; MBP (pEXP-MBP vector) (cleaved yes); His tag (IMAC capture, removed with the fusion by TEV and reverse IMAC) (cleaved yes); made in house; host or cells: E. coli T7 Express
As to the kind of experiment: biochemical. The class given is binding. Conditions: for KD: analyte 10 µM (1, 3, 5) or 0.5 µM (4, 6), n.b. – no binding observed. On the procedure: In such PPIs, the bulk of the binding energy contribution typically stems from backbone interactions, whereas binding specificity is fine-tuned by side-chain contacts. […] We evaluated the binding kinetics of peptides to full-length STAT3 using GCI.
Grating coupled interferometry (GCI)
GCI experiments were performed on a Creoptix WaveDELTA instrument (Malvern Panalytical). Full-length STAT1 or STAT3 were immobilised on a 4PCH chip (Malvern Panalytical #4PCH-03) to a density 2000-8000 pg/mm2 using EDC/NHS activation followed by amine coupling. Briefly, proteins (500 nM) were applied onto an activated chip in 10 mM MES pH 6.5, 20 mM NaCl, after which the chip surface was passivated with 1M ethanolamine, pH 8.0.
The kinetic measurements were perfor med using 20 mM HEPES pH 7.5, 300 mM NaCl, 0.01% Tween-20, 0.0005% DMSO as running buffer. Peptides were tested at 0.5 or 10 μM concentration using the waveRAPID kinetics experiment with the tight binder or intermediate binder mode, respectively.[4] Sensorgrams were fitted in the waveControl software (Malven Panalytical) using the 1:1 kinetic model. […]
GCI sensorgrams depicting RAPID kinetics measurements and fitted kinetic models for peptide binding to full-length STAT3 immobilised on a polycarboxylate hydrogel chip (4PCH). Peptides were applied at 0.5 or 10 μM concentration using the medium or tight binders pulse sequence. The peptides that show negligible Rmax values at 10 μM analyte concentration were classified as non-binding.
(1 picture or pasted object on this page, not shown here)

T1 sequence (P40763 whole entry, species assumed, the tested form may be a part): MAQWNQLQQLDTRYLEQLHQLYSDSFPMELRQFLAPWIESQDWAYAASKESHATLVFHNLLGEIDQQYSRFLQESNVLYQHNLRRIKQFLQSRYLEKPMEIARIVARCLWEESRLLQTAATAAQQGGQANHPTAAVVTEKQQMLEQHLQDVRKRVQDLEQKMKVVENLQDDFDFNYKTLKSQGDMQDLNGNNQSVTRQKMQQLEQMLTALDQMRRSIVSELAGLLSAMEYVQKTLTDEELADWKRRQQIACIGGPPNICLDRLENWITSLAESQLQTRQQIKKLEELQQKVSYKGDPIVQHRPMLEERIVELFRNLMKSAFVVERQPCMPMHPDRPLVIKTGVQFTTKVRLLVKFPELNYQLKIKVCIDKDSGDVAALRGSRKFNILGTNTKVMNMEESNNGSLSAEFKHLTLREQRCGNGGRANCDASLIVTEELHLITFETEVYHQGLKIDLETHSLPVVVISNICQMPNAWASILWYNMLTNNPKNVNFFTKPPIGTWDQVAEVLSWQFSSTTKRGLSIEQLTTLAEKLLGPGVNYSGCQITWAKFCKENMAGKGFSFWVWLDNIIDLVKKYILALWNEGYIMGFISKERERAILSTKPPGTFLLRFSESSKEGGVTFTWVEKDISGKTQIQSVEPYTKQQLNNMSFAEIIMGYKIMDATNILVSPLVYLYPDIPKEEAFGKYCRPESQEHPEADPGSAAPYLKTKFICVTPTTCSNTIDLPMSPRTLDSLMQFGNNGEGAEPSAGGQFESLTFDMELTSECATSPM

Turning to `CC[C@H](C)[C@H](NC(=O)[C@H](Cc1ccccc1)NC(=O)[C@@H](NC(=O)[C@H](CO)NC(=O)[C@H](Cc1c[nH]c2ccccc12)NC(=O)[C@H](CCSC)NC(C)=O)C(C)C)C(=O)N[C@@H](Cc1c[nH]cn1)C(=O)NCC(=O)N[C@@H](Cc1c[nH]cn1)C(=O)N[C@@H](CC(=O)O)C(=O)NCC(=O)N[C@@H](CO)C(=O)N[C@@H](CC(N)=O)C(=O)N[C@@H](CCCCN)C(=O)NCC(=O)N[C@@H](CO)C(=O)N[C@@H](CCCCN)C(=O)N[C@H](C(=O)N[C@@H](Cc1ccc(O)cc1)C(=O)N[C@H](C(N)=O)[C@@H](C)O)[C@@H](C)O` [Peptide 1], the KD result reads like this: (replicate 1 (first listed run, Table S2)) “n.b”; (replicate 2 (second listed run, Table S2)) “n.b”. Moreover, where the note is “full-length STAT3, negligible Rmax at 10 μM classified as non-binding”, the “STAT3 binding (GCI), in words” value is recorded as “not detected”.
